Read-outs that look alike come from different tables or passages of the source.
Assays:
Assay type in all cases: in vivo
[1] = test system: tobacco introduced with the gene encoding the variant soybean PPO; assay: Leaf piece chlorophyll test, tobacco with gene encoding variant soybean PPO; settings: Table 8; for Resistant level to test compound: same manner as Example 6 (0.3 ppm), treated vs untreated leaf pieces; for Total chlorophyll content treated-leaf: same manner as Example 6 (0.3 ppm, 7 days in light)
Excerpt: (§1) The tobacco leaves into which bchH gene was introduced and control recombinant tobacco leaves obtained in Example 5 were collected and each leaf was divided into the right and left equivalent pieces along the main vein, respectively. To one piece was applied an aqueous solution containing 0.3 ppm PPO inhibitory-type herbicidal compound of Structure 8, while, to the other piece was not applied the compound. These leaf pieces were placed on MS medium containing 0.8% agar and allowed to stand at room temperature for 7 days in light place. Then, each leaf piece was ground with pestle and mortar in 5 ml of 80% aqueous acetone solution to extract chlorophyll. The extract liquid was diluted with 80% aqueous acetone solution and the absorbance was measured at 750 nm, 663 nm and 645 nm to calculate total chlorophyll content according to the method described by Macknney G., J. Biol. Chem. (1941) 140, p 315. The results obtained from 4 clones of tobacco into which bchH gene was introduced (BCH1 to 4) and control recombinant tobacco is shown in Table 4. In the table, the resistant level to the herbicidal compound was represented by percentages of the total chlorophyll content of leaf pieces treated with herbicidal compound to that of untreated leaf pieces.
Leaf pieces of tobacco cultured sterilely were infected with the Agrobacterium strain and, according to the same manner as in Example 5, tobacco into which the gene encoding the variant soybean PPO was introduced was obtained.
The level of resistance to PPO inhibitory type herbicidal compound represented by Structure 8 was confirmed quantitatively by testing tobacco into which the gene encoding the variant soybean PPO prepared in Example 13 was introduced according to the same manner as in Example 6. The results obtained from 4 clones (GMP 1-4) of tobacco introduced with the gene encoding the variant soybean PPO and control recombinant tobacco are shown in Table 8. In the table, the resistant level to herbicidal compound is represented by percentage of the total chlorophyll content of leaf pieces treated with the herbicidal compound to that of untreated leaf pieces.

[2] = test system: tobacco into which bchH gene was introduced; assay: Leaf piece chlorophyll test, tobacco into which bchH gene was introduced; settings: 0.3 ppm, Table 4; for activity at 0.3 ppm: Nicotiana tabacum, 168 h, 7 days in light, treated vs untreated leaf pieces, read-out: Resistant level to test compound; for Total chlorophyll content treated-leaf: leaf pieces 7 days in light place
Method: Then, according to the method described in Manual for Gene Manipulation of Plant (by Hirofumi UCHIMIYA, Kodan-sha Scientific, 1992), the gene was introduced into tobacco. Agrobacterium strain bearing plasmid pBIBCH was cultured at 28° C. overnight in LB medium and then leaf pieces of tobacco cultured sterilely were dipped in the liquid culture medium. The leaf pieces were cultured at room temperature for 2 days in Murashige-Skoog medium (MS-medium, described in Murasige T. and Skoog F., Physiol. Plant. (1962) 15, p 473) containing 0.8% agar, 0.1 mg/liter naphthalene acetic acid and 1.0 mg/liter benzyl aminopurine. Then, the leaf pieces were washed with sterilized water and cultured for 7 days on MS medium containing 0.8% agar, 0.1 mg/liter naphthalene acetic acid, 1.0 mg/liter benzyl aminopurine and 500 μg/ml cefotaxime. The leaf pieces were transplanted onto MS medium containing 0.8% agar, 0.1 mg/liter naphthalene acetic acid, 1.0 mg/liter benzyl aminopurine, 500 μg/ml cefotaxime and 100 μg/ml kanamycin (hereinafter referred to as selective MS medium) and cultured on the medium continuously for 4months with transplanting the tobacco leaf pieces onto fresh selective MS medium every 1 month. During culture, stem-leaf differentiated shoots were appeared from the tobacco leaf pieces, these shoots were transplanted to MS medium containing 0.8% agar, 300 μg/ml cefotaxime and 50 μg/ml kanamycin to induce roots to obtain regenerated plants. The resultant regenerated plant was transplanted and cultured on MS medium 0.8% agar and 50 μg/ml kanamycin to obtain tobacco plant into which bchH gene was introduced. Similarly, tobacco leaf pieces were infected with Agrobacterium strain bearing pNO to obtain regenerated plant from the tobacco leaf pieces and tobacco plant (hereinafter referred to as control recombinant tobacco).
as §1
The tobacco clone into which bchH gene was introduced and control recombinant tobacco were also treated in the same manner with the solution containing PPO inhibitory-type herbicidal compound represented by the above Structure 3, 7, 10, 11, 13, 17, 23, 24, 25, 27, 28, 30 or 35, and the resistant level to each herbicidal compound was measured. In the table, the resistant levels to the herbicidal compound were represented by percentages of the total chlorophyll content of leaf pieces treated with the herbicidal compound to that of untreated leaf pieces.

[3] = test system: tobacco bearing introduced both Arabidopsis thaliana PPO(A220V) gene and gene encoding the variant tobacco chelatase subunit; assay: Leaf piece chlorophyll test, tobacco with PPO(A220V) gene and variant tobacco chelatase subunit gene; settings: 2.0 ppm, 7 days in a light place, Example 37
Excerpt: Tobacco leaf pieces cultured sterilely were infected with the Agrobacterium strain and, according to the same manner as in Example 5, tobacco bearing the introduced both Arabidopsis thaliana PPO(A220V) gene and gene encoding the variant tobacco chelatase subunit was obtained.
Leaves of the tobacco bearing the introduced both Arabidopsis thaliana PPO(A220V) gene and gene encoding the variant tobacco chelatase subunit produced in Example 36, those bearing the introduced Arabidopsis thaliana PPO(A220V) gene produced in Example 35, and the control recombinant tobacco leaves produced in Example 5were collected, and each leaf was divided into the right and left equivalent pieces along the main vein. One of the pieces was treated with an aqueous solution containing 2.0 ppm PPO inhibitory-type herbicidal compound of Structure 8, while the other piece was not treated with the compound. These leaf pieces were placed on MS medium containing 0.8% agar and allowed to stand at room temperature for 7 days in a light place. Then, each leaf piece was ground in 5 ml of 80% aqueous acetone solution in a mortar with a pestle to extract chlorophyll. The extract was diluted 10 times with 80% aqueous acetone solution and the absorbance was measured at 750 nm, 663 nm and 645 nm to calculate the total chlorophyll content according to the method described by Macknney G., J. Biol. Chem. (1941) 140, p 315. […]

C#CCOc1cc(N2C(=O)C3=C(CCCC3)C2=O)c(F)cc1Cl [Structure 8]
Resistant level to test compound ([1]; clone GMP-1): 135% | Total chlorophyll content treated-leaf ([1]; clone GMP-1): 2.55 mg/g-fresh weight | Resistant level to test compound ([1]; clone GMP-2): 108% | Total chlorophyll content treated-leaf ([1]; clone GMP-2): 0.96 mg/g-fresh weight | Resistant level to test compound ([1]; clone GMP-3): 99.3% | Total chlorophyll content treated-leaf ([1]; clone GMP-3): 1.49 mg/g-fresh weight | Resistant level to test compound ([1]; clone GMP-4): 80.4% | Total chlorophyll content treated-leaf ([1]; clone GMP-4): 2.34 mg/g-fresh weight | activity at 0.3 ppm ([2]; clone BCH-1): 126% | activity at 0.3 ppm ([2]; clone BCH-2): 104% | activity at 0.3 ppm ([2]; clone BCH-3): 81.3% | activity at 0.3 ppm ([2]; clone BCH-4): 70.2% | Total chlorophyll content treated-leaf ([2]; clone BCH-1): 1.70 mg/g-fresh weight | Total chlorophyll content treated-leaf ([2]; clone BCH-2): 2.14 mg/g-fresh weight | Total chlorophyll content treated-leaf ([2]; clone BCH-3): 1.57 mg/g-fresh weight | Total chlorophyll content treated-leaf ([2]; clone BCH-4): 1.06 mg/g-fresh weight | resistant level [3]: 61.6%
